# Measured values taken from PubChem BioAssay AID504680 (Sanford-Burnham Center for Chemical Genomics, 2011).
# Active and inactive are the calls of the source.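 Rule for the calls: active = IC50 below 100 µM in the TR-FRET assay, unless also active in the caspase-3 counter assay; inactive = the rest, including compounds also active in caspase-3.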
# Molecular target: Caspase-3 (Homo sapiens) (UniProt P42574)
# Test: caspase-3 inhibitors as false-positive filter, SAR follow-up, counter-screen for UBC13 polyubiquitin inhibitor project, biochemical, luminescence, Caspase-Glo 3/7 (AID 504680)
# Details: recombinant caspase-3, Caspase-Glo luminescence, 60 min
# Chain of Caspase-3 (Homo sapiens) (P42574 whole entry, looked up): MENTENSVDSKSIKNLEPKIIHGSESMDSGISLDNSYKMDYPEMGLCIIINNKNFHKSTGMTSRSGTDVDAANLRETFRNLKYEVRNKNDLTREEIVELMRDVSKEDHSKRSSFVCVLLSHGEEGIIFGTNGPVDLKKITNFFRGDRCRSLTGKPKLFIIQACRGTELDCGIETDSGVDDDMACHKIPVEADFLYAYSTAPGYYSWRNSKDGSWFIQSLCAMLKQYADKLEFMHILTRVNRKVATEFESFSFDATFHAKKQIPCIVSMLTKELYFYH
row,IC50,Structure (SMILES)
1,> 100 µM (inactive),O=C(NCC1CCN(Cc2ccccc2F)CC1)C1CCCN(c2ncnc3c2nc2n3CCCCC2)C1 (configuration not stated)
2,> 100 µM (inactive),CCc1ccc2nc(N(CCCN(C)C)C(=O)c3ccc(S(=O)(=O)N4CCc5ccccc5C4)cc3)sc2c1
3,> 100 µM (inactive),N#Cc1ccccc1Cn1c(=O)n(CCCC(=O)NC2CCN(Cc3ccccc3)CC2)c(=O)c2ccccc21
4,> 100 µM (inactive),O=C(c1ccco1)N1CCN(C(=O)C2CCN(c3ncnc4c3nc3n4CCCCC3)CC2)CC1
5,> 100 µM (inactive),O=C(CCCCCN1C(=O)c2cccc3cccc(c23)C1=O)NCCO
6,> 100 µM (inactive),Cc1ccccc1CN1CCC(CNC(=O)C2CCCN(c3ncnc4c3nc3n4CCCCC3)C2)CC1 (configuration not stated)
7,> 100 µM (inactive),O=C(NCCCN1CCN(c2ccc(F)cc2)CC1)C1CCCN(c2ncnc3c2nc2n3CCCCC2)C1 (configuration not stated)
8,> 100 µM (inactive),C=CCc1ccccc1OCC(O)CN1CCN(CCN2C(=O)c3cccc4cccc(c34)C2=O)CC1 (configuration not stated)
9,> 100 µM (inactive),O=C(c1ccc(S(=O)(=O)N2CCCC2)cc1)N1CCC(CN2C(=O)c3cccc4cccc(c34)C2=O)CC1
10,> 100 µM (inactive),COc1ccc(CCNC(=O)CCCCCN2C(=O)c3ccccc3C2=O)cc1
11,> 100 µM (inactive),O=C(CCCCn1c(=O)c2ccccc2n(Cc2ccccc2F)c1=O)NC1CCN(Cc2ccccc2)CC1
12,> 100 µM (inactive),COCCOC(=O)c1ccc(NC(=O)CCCCCN2C(=O)c3ccccc3C2=O)cc1
13,> 100 µM (inactive),CCN(Cc1ccccc1)S(=O)(=O)c1ccc(C(=O)N(CCCN(C)C)c2nc3cc4c(cc3s2)OCO4)cc1
14,> 100 µM (inactive),O=C(CCCCCN1C(=O)c2cccc([N+](=O)[O-])c2C1=O)NCc1ccccc1
15,> 100 µM (inactive),Cc1cc(C)c2sc(N(CCCN(C)C)C(=O)c3ccc(S(=O)(=O)N4CCc5ccccc5C4)cc3)nc2c1
16,> 100 µM (inactive),Cc1cccc(C)c1NC(=O)Cn1c(=O)n(CCCC(=O)NC2CCN(Cc3ccccc3)CC2)c(=O)c2ccccc21
17,> 100 µM (inactive),CCCCOC(=O)c1cccc(NC(=O)CCCCCN2C(=O)c3ccccc3C2=O)c1
18,> 100 µM (inactive),O=C1c2cccc3cccc(c23)C(=O)N1CCN1CCN(CC(O)COc2ccc3ccccc3c2)CC1 (configuration not stated)
19,> 100 µM (inactive),CCOc1cccc2sc(N(CCCN(C)C)C(=O)c3ccc(S(=O)(=O)N(CC)Cc4ccccc4)cc3)nc12
20,> 100 µM (inactive),O=C(NCC1CCN(Cc2ccc(Cl)cc2)CC1)C1CCCN(c2ncnc3c2nc2n3CCCCC2)C1 (configuration not stated)
21,> 100 µM (inactive),COc1ccc(-c2oc3ncnc(N)c3c2-c2ccccc2)cc1

row,IC50,Structure (SMILES)
1,> 100 µM (inactive),CCOc1ccc(NC(=O)Cn2c(=O)n(CCCC(=O)NC3CCN(Cc4ccccc4)CC3)c(=O)c3ccccc32)cc1
2,> 100 µM (inactive),CN(C)CCCN(C(=O)c1ccc(S(=O)(=O)N(C)Cc2ccccc2)cc1)c1nc2cc3c(cc2s1)OCO3
3,> 100 µM (inactive),COc1cccc(OCC(O)CN2CCN(CCN3C(=O)c4cccc5cccc(c45)C3=O)CC2)c1 (configuration not stated)
4,> 100 µM (inactive),CCCCN(CC)S(=O)(=O)c1ccc(C(=O)N(CCCN(C)C)c2nc3cc(C)cc(C)c3s2)cc1
5,> 100 µM (inactive),CC1CN(S(=O)(=O)c2ccc(NC(=O)CCCCCN3C(=O)c4ccccc4C3=O)cc2)CC(C)O1 (configuration not stated)
6,> 100 µM (inactive),CCCN1CCN(C(=O)C2CCN(c3ncnc4c3nc3n4CCCCC3)CC2)CC1
7,> 100 µM (inactive),CCN(Cc1ccccc1)S(=O)(=O)c1ccc(C(=O)N(CCCN(C)C)c2nc3cc(C)cc(C)c3s2)cc1
8,> 100 µM (inactive),CC(=O)c1ccc(OCC(O)CN2CCN(CCN3C(=O)c4cccc5cccc(c45)C3=O)CC2)cc1 (configuration not stated)
9,> 100 µM (inactive),O=C(CCCCCN1C(=O)c2ccccc2C1=O)Nc1ccc(S(=O)(=O)Nc2ncccn2)cc1
10,> 100 µM (inactive),O=C(Nc1ccc(F)c(Cl)c1)C1CCN(c2ncnc3c2nc2n3CCCCC2)CC1
11,> 100 µM (inactive),CC(NC(=O)CCCCCN1C(=O)c2cccc([N+](=O)[O-])c2C1=O)c1ccccc1 (configuration not stated)
12,> 100 µM (inactive),O=C(CCCn1c(=O)c2ccccc2n(Cc2ccc(Cl)cc2)c1=O)NC1CCN(Cc2ccccc2)CC1
13,> 100 µM (inactive),O=C1c2cccc3cccc(c23)C(=O)N1CCN1CCN(CC(O)COc2ccc(C3CCCCC3)cc2)CC1 (configuration not stated)
14,> 100 µM (inactive),Cc1cc(C)cc(OCCNC(=O)CCCCCN2C(=O)c3ccccc3C2=O)c1
15,> 100 µM (inactive),CN(C)CCCN(C(=O)c1ccc(S(=O)(=O)N2CCCCCC2)cc1)c1nc2ccc(Br)cc2s1
16,> 100 µM (inactive),Cc1ccc2nc(N(CCCN(C)C)C(=O)c3ccc4c(c3)CCCC4)sc2c1
17,> 100 µM (inactive),CN(C)CCCN(C(=O)c1ccc(C(=O)c2ccccc2)cc1)c1nc2cc3c(cc2s1)OCCO3
18,> 100 µM (inactive),O=C(C1CCN(c2ncnc3c2nc2n3CCCCC2)CC1)N1CCOCC1
19,> 100 µM (inactive),CNCc1cc(Br)c(OCC(=O)Nc2ccccc2OC)c(OC)c1
20,> 100 µM (inactive),Cc1ccc(C)c(OCC(O)CN2CCN(CCN3C(=O)c4cccc5cccc(c45)C3=O)CC2)c1 (configuration not stated)
21,> 100 µM (inactive),CN(C)CCCN(C(=O)c1ccc2c(c1)CCCC2)c1nc2ccc(Cl)cc2s1

row,IC50,Structure (SMILES)
1,> 100 µM (inactive),O=C(C1COc2ccccc2O1)N1CCN(CCN2C(=O)c3cccc4cccc(c34)C2=O)CC1 (configuration not stated)
2,> 100 µM (inactive),CN(C)CCCN(C(=O)c1ccc(C(=O)c2ccccc2)cc1)c1nc2cc3c(cc2s1)OCO3
3,> 100 µM (inactive),Cc1cc(NC(=O)Cn2c(=O)n(CCCCC(=O)NC3CCN(Cc4ccccc4)CC3)c(=O)c3ccccc32)n[nH]1
4,> 100 µM (inactive),CN(CCNC(=O)C1CCN(c2ncnc3c2nc2n3CCCCC2)CC1)Cc1ccccc1
5,> 100 µM (inactive),COc1cccc2sc(N(CCCN(C)C)C(=O)c3ccc(S(=O)(=O)N4CCc5ccccc5C4)cc3)nc12
6,> 100 µM (inactive),CC1CCCC(C)N1CCCNC(=O)C1CCCN(c2ncnc3c2nc2n3CCCCC2)C1 (configuration not stated)
7,> 100 µM (inactive),Cc1ccccc1NC(=S)NC(=O)CCCCCN1C(=O)c2ccccc2C1=O
8,> 100 µM (inactive),O=C(CCCCCN1C(=O)c2ccccc2C1=O)NCc1ccco1
9,> 100 µM (inactive),Cc1ccc(-c2oc3ncnc(N)c3c2-c2ccc(C)cc2)cc1
10,> 100 µM (inactive),CCN(Cc1ccccc1)S(=O)(=O)c1ccc(C(=O)N(CCCN(C)C)c2nc3cc4c(cc3s2)OCCO4)cc1
11,> 100 µM (inactive),CC1CCCCN1C(=O)C1CCN(c2ncnc3c2nc2n3CCCCC2)CC1 (configuration not stated)
12,> 100 µM (inactive),COc1ccc(C)c2sc(N(CCCN(C)C)C(=O)c3ccc(S(=O)(=O)N(C)C)cc3)nc12
13,> 100 µM (inactive),Cc1ccc(NC(=O)C2CCN(c3ncnc4c3nc3n4CCCCC3)CC2)cc1Cl
14,> 100 µM (inactive),COc1ccc2sc(N(CCCN(C)C)C(=O)c3ccc(S(=O)(=O)N(C)Cc4ccccc4)cc3)nc2c1
15,> 100 µM (inactive),O=C(CCCCCN1C(=O)c2ccccc2C1=O)N1CCN(c2ccc([N+](=O)[O-])cc2)CC1
16,> 100 µM (inactive),COc1cc(/C=C/c2cc[n+](C)cc2)ccc1OCC(=O)Nc1ccc(Cl)c(Cl)c1
17,> 100 µM (inactive),O=C(NCCCN1CCN(c2ccccc2)CC1)C1CCCN(c2ncnc3c2nc2n3CCCCC2)C1 (configuration not stated)
18,> 100 µM (inactive),O=C(CCCCCN1C(=O)c2cccc3cccc(c23)C1=O)NCc1cccnc1
19,> 100 µM (inactive),Cc1ccccc1OCC(O)CN1CCN(CCN2C(=O)c3cccc4cccc(c34)C2=O)CC1 (configuration not stated)
20,> 100 µM (inactive),CC(=O)c1ccccc1OCC(O)CN1CCN(CCN2C(=O)c3cccc4cccc(c34)C2=O)CC1 (configuration not stated)
21,> 100 µM (inactive),CCOc1ccc2nc(N(CCCN(C)C)C(=O)c3ccc(S(=O)(=O)N4CCc5ccccc5C4)cc3)sc2c1

row,IC50,Structure (SMILES)
1,> 100 µM (inactive),O=C(CCCCCN1C(=O)c2ccccc2C1=O)Nc1nc(C2CC2)cs1
2,> 100 µM (inactive),COc1ccc(NC(=O)CCCCCN2C(=O)c3cccc([N+](=O)[O-])c3C2=O)cc1
3,> 100 µM (inactive),COC(=O)c1ccc(OCC(O)CN2CCN(CCN3C(=O)c4cccc5cccc(c45)C3=O)CC2)cc1 (configuration not stated)
4,> 100 µM (inactive),Cc1cc(C)c2sc(N(CCCN(C)C)C(=O)c3ccc(S(=O)(=O)N(C)C4CCCCC4)cc3)nc2c1
5,> 100 µM (inactive),COc1ccc(C(=O)Nn2c(C)nc3ccccc3c2=O)cc1
6,> 100 µM (inactive),Cc1[nH]c2c(Cl)c(Cl)ccc2c1CCNC(=O)CCCCCN1C(=O)c2ccccc2C1=O
7,> 100 µM (inactive),O=C1c2cccc3cccc(c23)C(=O)N1CCN1CCN(CC(O)COc2ccccc2)CC1 (configuration not stated)
8,> 100 µM (inactive),CCC1CCCCN1CCCNC(=O)C1CCN(c2ncnc3c2nc2n3CCCCC2)CC1 (configuration not stated)
9,> 100 µM (inactive),COC(=O)C1=C(NC(=O)CCCCCN2C(=O)c3ccccc3C2=O)SC2CCCC12 (configuration not stated)
10,> 100 µM (inactive),COc1cc2nc(N(CCCN(C)C)C(=O)c3ccc(S(=O)(=O)N4CCc5ccccc5C4)cc3)sc2cc1OC
11,> 100 µM (inactive),CN(C)CCCN(C(=O)c1ccc(S(=O)(=O)N2CCCCCC2)cc1)c1nc2cc3c(cc2s1)OCCO3
12,> 100 µM (inactive),O=C(NCC1CCN(Cc2cccc(Cl)c2)CC1)C1CCCN(c2ncnc3c2nc2n3CCCCC2)C1 (configuration not stated)
13,> 100 µM (inactive),O=C1c2cccc3cccc(c23)C(=O)N1CC1CCN(CC(O)COCc2ccc3c(c2)OCO3)CC1 (configuration not stated)
14,> 100 µM (inactive),Cc1cc(C)c2sc(N(CCCN(C)C)C(=O)c3ccc(S(=O)(=O)N(C)Cc4ccccc4)cc3)nc2c1
15,> 100 µM (inactive),COc1ccccc1NC(=S)NC(=O)CCCCCN1C(=O)c2ccccc2C1=O
16,> 100 µM (inactive),CCOC(=O)c1c(NC(=O)COc2ccccc2C#N)sc2c1CC(C)(C)NC2(C)C
17,> 100 µM (inactive),O=C(C1CCN(c2ncnc3c2nc2n3CCCCC2)CC1)N1CCC(Cc2ccccc2)CC1
18,> 100 µM (inactive),O=C(CCCCn1c(=O)c2ccccc2n(Cc2ccccc2)c1=O)NC1CCN(Cc2ccccc2)CC1
19,> 100 µM (inactive),O=C(CCCCCN1C(=O)c2ccccc2C1=O)NCCc1nc2ccccc2[nH]1
